Source: patent US5840684A, “Glycopeptide antibiotic derivatives” (Eli Lilly and Company, priority 1995, dated 1998)
Values after ≈ are worked out from the molar mass of the structure shown.

How the values were obtained:
[1] = test system: Staphylococcus aureus S13E; type: cell-based
Procedure: (§1) The MIC's were determined using a standard broth micro-dilution assay.

[2] = test system: Staphylococcus aureus SA1199B; type: cell-based
Procedure: as §1

[3] = test system: Entercoccus faecium 180-1; experiment: broth micro-dilution MIC; type: cell-based
Procedure: as §1

[4] = test system: Staphylococcus aureus 446; experiment: broth micro-dilution MIC; type: cell-based
Procedure: as §1

[5] = test system: Staphylococcus aureus 447; experiment: broth micro-dilution MIC; type: cell-based
Procedure: as §1

[6] = test system: Staphylococcus aureus 489; experiment: broth micro-dilution MIC; type: cell-based
Procedure: as §1

[7] = test system: Staphylococcus aureus SA1199A; experiment: broth micro-dilution MIC; type: cell-based
Procedure: as §1

[8] = test system: Staphylococcus aureus SA1199; experiment: broth micro-dilution MIC; type: cell-based
Procedure: as §1

[9] = test system: Staphylococcus aureus X400; experiment: broth micro-dilution MIC; type: cell-based
Procedure: as §1

[10] = test system: Staphylococcus aureus X778; experiment: broth micro-dilution MIC; type: cell-based
Procedure: as §1

[11] = test system: Streptococcus pyogenes C203; experiment: broth micro-dilution MIC; type: cell-based
Procedure: as §1

[12] = test system: Entercoccus faecium 180; experiment: broth micro-dilution MIC; type: cell-based; conditions: Entercoccus faecium 180
Procedure: (§2) The formula I compounds have in vitro and in vivo activity against Gram-positive pathogenic bacteria. The MIC's were determined using a standard broth micro-dilution assay.

[13] = test system: Entercoccus faecium 2041; experiment: broth micro-dilution MIC; type: cell-based; conditions: Entercoccus faecium 2041
Procedure: as §2

[14] = test system: Enterococcus gallinarum 245; experiment: broth micro-dilution MIC; type: cell-based; conditions: Enterococcus gallinarum 245
Procedure: as §2

[15] = test system: Haemophilus influenzae RD; experiment: broth micro-dilution MIC; type: cell-based; conditions: Haemophilus influenzae RD
Procedure: as §2

[16] = test system: Staphylococcus haemolyticus 105; experiment: broth micro-dilution MIC; type: cell-based
Procedure: as §2

[17] = test system: Staphylococcus haemolyticus 415; experiment: broth micro-dilution MIC; type: cell-based
Procedure: as §2

[18] = test system: Streptococcus pneumoniae P1; experiment: broth micro-dilution MIC; type: cell-based
Procedure: as §2

[19] = test system: vancomycin-resistant enterococci; experiment: broth micro-dilution, mean geometric MIC; type: cell-based, Enterococcus faecium and Enterococcus faecalis; conditions: enterococci, 24-hour incubation
[20] = test system: vancomycin-susceptible enterococci; experiment: broth micro-dilution, mean geometric MIC; type: cell-based, Enterococcus faecium and Enterococcus faecalis; conditions: enterococci, 24-hour incubation
[21] = test system: Staphylococcus epidermidis 270; experiment: broth micro-dilution MIC; type: cell-based
Procedure: as §2

[22] = test system: Entercoccus faecium 276; experiment: broth micro-dilution MIC; type: cell-based
Procedure: as §1

Structure (SMILES)	MIC [1] [µg/mL]	MIC [2] [µg/mL]	MIC [3] [µg/mL]	MIC [4] [µg/mL]	MIC [5] [µg/mL]	MIC [6] [µg/mL]	MIC [7] [µg/mL]	MIC [8] [µg/mL]	MIC [9] [µg/mL]	MIC [11] [µg/mL]	MIC [12] [µg/mL]	MIC [13] [µg/mL]	MIC [14] [µg/mL]	MIC [15] [µg/mL]	MIC [16] [µg/mL]	MIC [17] [µg/mL]	MIC [18] [µg/mL]	mean geometric MIC, Vancomycin Resistant Strains [19] [µg/mL]	mean geometric MIC, Vancomycin Sensitive Strains [20] [µg/mL]	MIC [21] [µg/mL]	also measured
CNC(CC(C)C)C(=O)NC1C(=O)NC(CC(N)=O)C(=O)NC2C(=O)NC3C(=O)NC(C(=O)NC(C(=O)O)c4cc(O)cc(O)c4-c4cc3ccc4O)C(OC3CC(C)(N)C(O)C(C)O3)c3ccc(c(Cl)c3)Oc3cc2cc(c3OC2OC(CO)C(O)C(O)C2OC2CC(C)(NCCCCCCc3ccccc3)C(O)C(C)O2)Oc2ccc(cc2Cl)C1O (stereo not shown) [Compound 196]	1 (≈ 0.571 µM)	0.5 (≈ 0.285 µM)	≤ 0.06	0.5 (≈ 0.285 µM)	0.5 (≈ 0.285 µM)	1 (≈ 0.571 µM)	≤ 0.06	0.5 (≈ 0.285 µM)	0.5 (≈ 0.285 µM)	≤ 0.06	0.5 (≈ 0.285 µM)	≤ 0.06	1 (≈ 0.571 µM)	32 (≈ 18.3 µM)	0.5 (≈ 0.285 µM)	1 (≈ 0.571 µM)	≤ 0.06	1.7	0.027		MIC [10]: 1 µg/mL (≈ 0.571 µM)
CNC(CC(C)C)C(=O)NC1C(=O)NC(CC(N)=O)C(=O)NC2C(=O)NC3C(=O)NC(C(=O)NC(C(=O)O)c4cc(O)cc(O)c4-c4cc3ccc4O)C(OC3CC(C)(N)C(O)C(C)O3)c3ccc(c(Cl)c3)Oc3cc2cc(c3OC2OC(CO)C(O)C(O)C2OC2CC(C)(NCc3ccc(-c4ccc(O)cc4)cc3)C(O)C(C)O2)Oc2ccc(cc2Cl)C1O (stereo not shown) [Compound 20]	≤ 0.06	0.5 (≈ 0.282 µM)	≤ 0.06	0.5 (≈ 0.282 µM)	4 (≈ 2.25 µM)	0.5 (≈ 0.282 µM)	≤ 0.06	2 (≈ 1.13 µM)	0.5 (≈ 0.282 µM)	≤ 0.06	1 (≈ 0.563 µM)	≤ 0.06		8 (≈ 4.51 µM)	8 (≈ 4.51 µM)	4 (≈ 2.25 µM)	≤ 0.06	4.8	0.38	2 (≈ 1.13 µM)	
CNC(CC(C)C)C(=O)NC1C(=O)NC(CC(N)=O)C(=O)NC2C(=O)NC3C(=O)NC(C(=O)NC(C(=O)O)c4cc(O)cc(O)c4-c4cc3ccc4O)C(OC3CC(C)(N)C(O)C(C)O3)c3ccc(c(Cl)c3)Oc3cc2cc(c3OC2OC(CO)C(O)C(O)C2OC2CC(C)(NCc3ccc(-c4ccccc4C)c(C)c3)C(O)C(C)O2)Oc2ccc(cc2Cl)C1O (stereo not shown) [Compound 237]			≤ 0.06	2 (≈ 1.12 µM)	1 (≈ 0.56 µM)	0.5 (≈ 0.28 µM)	≤ 0.06	1 (≈ 0.56 µM)	1 (≈ 0.56 µM)	≤ 0.06		0.125 (≈ 0.07 µM)	1 (≈ 0.56 µM)	8 (≈ 4.48 µM)	1 (≈ 0.56 µM)	1 (≈ 0.56 µM)	≤ 0.06	1.0	0.048	0.5 (≈ 0.28 µM)	MIC [22]: 1 µg/mL (≈ 0.56 µM); MIC [10]: 0.5 µg/mL (≈ 0.28 µM)
C=CCCCOc1ccc(CNC2(C)CC(OC3C(Oc4c5cc6cc4Oc4ccc(cc4Cl)C(OC4CC(C)(N)C(O)C(C)O4)C4NC(=O)C(NC(=O)C6NC(=O)C(CC(N)=O)NC(=O)C(NC(=O)C(CC(C)C)NC)C(O)c6ccc(c(Cl)c6)O5)c5ccc(O)c(c5)-c5c(O)cc(O)cc5C(C(=O)O)NC4=O)OC(CO)C(O)C3O)OC(C)C2O)cc1 (stereo not shown) [Compound 226]	0.5 (≈ 0.283 µM)	1 (≈ 0.566 µM)	≤ 0.06	1 (≈ 0.566 µM)	0.5 (≈ 0.283 µM)	0.5 (≈ 0.283 µM)		1 (≈ 0.566 µM)		≤ 0.06	≤ 0.06	≤ 0.06	1 (≈ 0.566 µM)	32 (≈ 18.1 µM)	2 (≈ 1.13 µM)	1 (≈ 0.566 µM)	≤ 0.06	1.6	0.041	1 (≈ 0.566 µM)	
